# Where a SMILES comes first, the peptide text is derived from it.
# Experiment: Solubility pre-screen of peptides
# Settings: pre-screened for solubility in an aqueous, acidic milieu; YES/NO
# Description: Methods The assay employed is a competitive MHC class II binding assay, wherein each peptide is analysed for its ability to displace a known control binder from each of the human MHC class II allotypes investigated.
# Also shown is the solubility status of the peptide at the highest concentrations in the aqueous solution of the binding assay. The value illustrates the lowest concentration at which an insoluble white precipitate is seen.
row,SMILES,Solubility test
1,CC[C@H](C)[C@H](NC(=O)CNC(=O)[C@@H](NC(=O)[C@H](Cc1c[nH]cn1)NC(=O)[C@H](CCCNC(=N)N)NC(=O)[C@H](CCC(=O)O)NC(=O)[C@H](Cc1ccccc1)NC(=O)[C@H](CCCCN)NC(=O)[C@@H](N)CC(=O)O)[C@@H](C)CC)C(=O)N[C@H](C(=O)N[C@@H](CC(=O)O)C(=O)N[C@@H](CC(C)C)C(=O)N[C@@H](CCCCN)C(=O)O)[C@@H](C)CC [HDM30] (H-DKFERHIGIIDLK-OH; N-terminus and C-terminus assumed),YES
2,CC[C@H](C)[C@H](NC(=O)[C@H](CCCCN)NC(=O)[C@H](CC(N)=O)NC(=O)[C@@H](NC(=O)[C@H](CC(N)=O)NC(=O)[C@@H]1CCCN1)C(C)C)C(=O)N[C@@H](CCCNC(=N)N)C(=O)N[C@@H](CCC(=O)O)C(=O)N[C@@H](C)C(=O)N[C@@H](CC(C)C)C(=O)N[C@@H](C)C(=O)N[C@@H](CCC(N)=O)C(=O)N[C@H](C(=O)O)[C@@H](C)O [HDM07] (H-PNVNKIREALAQT-OH; N-terminus and C-terminus assumed),YES
3,CC(C)C[C@H](NC(=O)[C@H](CCC(=O)O)NC(=O)[C@H](CCCCN)NC(=O)[C@H](CCCCN)NC(=O)[C@H](Cc1ccccc1)NC(=O)[C@H](C)NC(=O)[C@@H]1CCCN1C(=O)[C@H](C)NC(=O)[C@H](CC(C)C)NC(=O)[C@@H](NC(=O)[C@@H](N)CCCCN)C(C)C)C(=O)N[C@@H](CCC(=O)O)C(=O)N[C@@H](CCCNC(=N)N)C(=O)O [HDM50] (H-KVLAPAFKKELER-OH; N-terminus and C-terminus assumed),YES
4,CC(C)[C@H](NC(=O)[C@H](Cc1ccc(O)cc1)NC(=O)[C@@H](N)CCCNC(=N)N)C(=O)N[C@@H](C)C(=O)N[C@@H](CCCNC(=N)N)C(=O)N[C@@H](CCC(=O)O)C(=O)N[C@@H](CCC(N)=O)C(=O)N[C@@H](CO)C(=O)N[C@@H](CS)C(=O)N[C@@H](CCCNC(=N)N)C(=O)N[C@@H](CCCNC(=N)N)C(=O)N1CCC[C@H]1C(=O)N[C@@H](CC(N)=O)C(=O)O [HDM06] (H-RYVAREQSCRRPN-OH; N-terminus and C-terminus assumed),YES
5,CC[C@H](C)[C@H](NC(=O)[C@H](CC(N)=O)NC(=O)[C@H](CCCNC(=N)N)NC(=O)[C@H](CCSC)NC(=O)[C@H](CC(=O)O)NC(=O)[C@@H](N)CC(C)C)C(=O)N[C@@H](CCC(N)=O)C(=O)N[C@H](C(=O)N[C@@H](CCCNC(=N)N)C(=O)NCC(=O)N[C@@H](CC(C)C)C(=O)N[C@@H](CCCCN)C(=O)N[C@@H](CCC(N)=O)C(=O)O)C(C)C [HDM33] (H-LDMRNIQVRGLKQ-OH; N-terminus and C-terminus assumed),YES
6,CSCC[C@H](NC(=O)[C@H](CCC(=O)O)NC(=O)[C@H](C)NC(=O)[C@H](CCCNC(=N)N)NC(=O)[C@@H](NC(=O)[C@@H](NC(=O)[C@@H](N)CC(=O)O)[C@@H](C)O)C(C)C)C(=O)N[C@H](C(=O)N[C@@H](CCCCN)C(=O)N[C@H](C(=O)N[C@@H](CC(C)C)C(=O)N[C@@H](C)C(=O)N1CCC[C@H]1C(=O)O)C(C)C)[C@@H](C)O [HDM49] (H-DTVRAEMTKVLAP-OH; N-terminus and C-terminus assumed),YES
7,C[C@@H](O)[C@H](NC(=O)[C@H](CC(=O)O)NC(=O)[C@H](Cc1c[nH]c2ccccc12)NC(=O)[C@H](CO)NC(=O)[C@H](CC(N)=O)NC(=O)[C@@H](N)CCCNC(=N)N)C(=O)N[C@@H](CC(N)=O)C(=O)N[C@@H](Cc1c[nH]c2ccccc12)C(=O)NCC(=O)N[C@@H](CC(=O)O)C(=O)N[C@@H](CC(N)=O)C(=O)NCC(=O)N[C@@H](Cc1ccc(O)cc1)C(=O)NCC(=O)O [HDM16A] (H-RNSWDTNWGDNGYG-OH; N-terminus and C-terminus assumed),YES
8,CC[C@H](C)[C@H](N)C(=O)N[C@@H](CC(=O)O)C(=O)N[C@@H](CC(C)C)C(=O)N[C@@H](CCCNC(=N)N)C(=O)N[C@@H](CCC(N)=O)C(=O)N[C@@H](CCSC)C(=O)N[C@@H](CCCNC(=N)N)C(=O)N[C@H](C(=O)N[C@H](C(=O)N[C@H](C(=O)N1CCC[C@H]1C(=O)N[C@H](C(=O)N[C@@H](CCCNC(=N)N)C(=O)O)[C@@H](C)CC)[C@@H](C)O)C(C)C)[C@@H](C)O [HDM01] (H-IDLRQMRTVTPIR-OH; N-terminus and C-terminus assumed),YES
9,CC[C@H](C)[C@H](NC(=O)[C@H](CC(N)=O)NC(=O)[C@@H](N)CCCNC(=N)N)C(=O)N[C@@H](CCC(N)=O)C(=O)N[C@H](C(=O)N[C@@H](CCCNC(=N)N)C(=O)NCC(=O)N[C@@H](CC(C)C)C(=O)N[C@@H](CCCCN)C(=O)N[C@@H](CCC(N)=O)C(=O)N[C@@H](CCSC)C(=O)N[C@@H](CCCCN)C(=O)N[C@@H](CCCNC(=N)N)C(=O)N[C@H](C(=O)NCC(=O)O)C(C)C)C(C)C [HDM34] (H-RNIQVRGLKQMKRVG-OH; N-terminus and C-terminus assumed),YES
10,CC(C)C[C@H](NC(=O)[C@H](CC(=O)O)NC(=O)[C@@H](N)CCCCN)C(=O)N[C@@H](CC(=O)O)C(=O)N[C@@H](C)C(=O)N[C@@H](Cc1ccccc1)C(=O)N[C@@H](CCCNC(=N)N)C(=O)N[C@@H](Cc1c[nH]cn1)C(=O)N[C@@H](Cc1ccc(O)cc1)C(=O)N[C@@H](CC(=O)O)C(=O)NCC(=O)N[C@@H](CCCNC(=N)N)C(=O)N[C@H](C(=O)O)[C@@H](C)O [HDM12] (H-KDLDAFRHYDGRT-OH; N-terminus and C-terminus assumed),YES
11,CSCC[C@H](NC(=O)[C@@H]1CCCN1C(=O)[C@H](CC(=O)O)NC(=O)[C@H](Cc1ccccc1)NC(=O)[C@@H](NC(=O)[C@@H](N)CCC(=O)O)[C@@H](C)O)C(=O)N[C@@H](CCCCN)C(=O)N[C@H](C(=O)N1CCC[C@H]1C(=O)N[C@@H](CC(=O)O)C(=O)N[C@@H](Cc1c[nH]cn1)C(=O)N[C@@H](CO)C(=O)N[C@@H](CC(=O)O)C(=O)N[C@@H](CCCCN)C(=O)O)C(C)C [HDM29A] (H-ETFDPMKVPDHSDK-OH; N-terminus and C-terminus assumed),YES
12,CC[C@H](C)[C@H](NC(=O)[C@@H](NC(=O)[C@H](C)NC(=O)[C@@H](NC(=O)[C@H](C)NC(=O)[C@H](CO)NC(=O)[C@H](Cc1c[nH]cn1)NC(=O)[C@@H](NC(=O)[C@H](CCC(N)=O)NC(=O)[C@H](C)NC(=O)[C@H](CC(C)C)NC(=O)[C@H](C)NC(=O)[C@H](CCC(=O)O)NC(=O)[C@@H](N)CCCNC(=N)N)[C@@H](C)O)[C@@H](C)CC)C(C)C)C(=O)O [HDM09A] (H-REALAQTHSAIAVI-OH; N-terminus and C-terminus assumed),YES
13,CC(C)C[C@H](NC(=O)[C@H](CCC(N)=O)NC(=O)[C@H](Cc1ccccc1)NC(=O)[C@@H]1CCCN1C(=O)[C@@H](N)CCCCN)C(=O)N[C@@H](CCC(=O)O)C(=O)N[C@@H](C)C(=O)N[C@H](C(=O)N[C@@H](Cc1ccccc1)C(=O)N[C@@H](CCC(=O)O)C(=O)N[C@@H](C)C(=O)N[C@@H](CC(N)=O)C(=O)N[C@@H](CCC(N)=O)C(=O)N[C@@H](CC(N)=O)C(=O)N[C@H](C(=O)N[C@@H](CCCCN)C(=O)O)[C@@H](C)O)C(C)C [HDM21A] (H-KPFQLEAVFEANQNTK-OH; N-terminus and C-terminus assumed),YES
14,CSCC[C@H](NC(=O)[C@@H]1CCCN1C(=O)[C@H](CC(=O)O)NC(=O)[C@H](Cc1ccccc1)NC(=O)[C@@H](NC(=O)[C@@H](N)CCC(=O)O)[C@@H](C)O)C(=O)N[C@@H](CCCCN)C(=O)N[C@H](C(=O)N1CCC[C@H]1C(=O)N[C@@H](CC(=O)O)C(=O)N[C@@H](Cc1c[nH]cn1)C(=O)N[C@@H](CO)C(=O)N[C@@H](CC(=O)O)C(=O)O)C(C)C [HDM29] (H-ETFDPMKVPDHSD-OH; N-terminus and C-terminus assumed),YES
15,CC(C)C[C@H](NC(=O)[C@H](CCC(N)=O)NC(=O)[C@H](Cc1ccccc1)NC(=O)[C@@H]1CCCN1C(=O)[C@H](CCCCN)NC(=O)CNC(=O)[C@@H](N)CCCNC(=N)N)C(=O)N[C@@H](CCC(=O)O)C(=O)N[C@@H](C)C(=O)N[C@H](C(=O)N[C@@H](Cc1ccccc1)C(=O)N[C@@H](CCC(=O)O)C(=O)N[C@@H](C)C(=O)N[C@@H](CC(N)=O)C(=O)N[C@@H](CCC(N)=O)C(=O)N[C@@H](CC(N)=O)C(=O)N[C@H](C(=O)O)[C@@H](C)O)C(C)C [HDM21B] (H-RGKPFQLEAVFEANQNT-OH; N-terminus and C-terminus assumed),YES
16,CSCC[C@H](NC(=O)[C@H](CCC(N)=O)NC(=O)[C@H](CCCCN)NC(=O)[C@H](CC(C)C)NC(=O)CNC(=O)[C@@H](N)CCCNC(=N)N)C(=O)N[C@@H](CCCCN)C(=O)N[C@@H](CCCNC(=N)N)C(=O)N[C@H](C(=O)NCC(=O)N[C@@H](CC(=O)O)C(=O)N[C@@H](C)C(=O)N[C@@H](CC(N)=O)C(=O)O)C(C)C [HDM35] (H-RGLKQMKRVGDAN-OH; N-terminus and C-terminus assumed),YES
17,CC[C@H](C)[C@H](NC(=O)[C@H](Cc1ccc(O)cc1)NC(=O)[C@@H](N)CCC(=O)O)C(=O)N[C@@H](CCC(N)=O)C(=O)N[C@@H](Cc1c[nH]cn1)C(=O)N[C@@H](CC(N)=O)C(=O)NCC(=O)N[C@H](C(=O)N[C@H](C(=O)N[C@@H](CCC(N)=O)C(=O)N[C@@H](CCC(=O)O)C(=O)N[C@@H](CO)C(=O)N[C@@H](Cc1ccc(O)cc1)C(=O)O)C(C)C)C(C)C [HDM05] (H-EYIQHNGVVQESY-OH; N-terminus and C-terminus assumed),YES
18,CC(C)[C@H](NC(=O)[C@H](CCCNC(=N)N)NC(=O)[C@@H](N)CCCCN)C(=O)NCC(=O)N[C@@H](CC(=O)O)C(=O)N[C@@H](C)C(=O)N[C@@H](CC(N)=O)C(=O)N[C@H](C(=O)N[C@@H](CCCCN)C(=O)N[C@@H](CO)C(=O)N[C@@H](CCC(=O)O)C(=O)N[C@@H](CC(=O)O)C(=O)NCC(=O)O)C(C)C [HDM36] (H-KRVGDANVKSEDG-OH; N-terminus and C-terminus assumed),YES
19,CC[C@H](C)[C@H](NC(=O)[C@H](CCCCN)NC(=O)[C@@H](N)CC(N)=O)C(=O)N[C@@H](CCCNC(=N)N)C(=O)N[C@@H](CCC(=O)O)C(=O)N[C@@H](C)C(=O)N[C@@H](CC(C)C)C(=O)N[C@@H](C)C(=O)N[C@@H](CCC(N)=O)C(=O)N[C@H](C(=O)N[C@@H](Cc1c[nH]cn1)C(=O)N[C@@H](CO)C(=O)N[C@@H](C)C(=O)O)[C@@H](C)O [HDM08] (H-NKIREALAQTHSA-OH; N-terminus and C-terminus assumed),YES
